From paper PMC10303200 (ACS Central Science, 2023)
Where two headings read alike, the source gives them in different places.

Legend:
MAA = molecular target: T1, MAA; experiment: COIN-CaR-nMS with purified oligosaccharides listed beside the library glycans, 200 mM ammonium acetate, pH 6.9.; format: binding; conditions: SD; read-out: Kd, purified oligosaccharides in Tables S12, S13, S18, S19
T1 construct: commercial lectin mixture

Sig7-Fc = Sig7-Fc (Homo sapiens, UniProt Q9Y286); experiment: as above; format: binding; parameters: gene SIGLEC7; residues 1-345, human IgG1 Fc fusion and C-terminal His6, from CHO cells, MW 150 kDa; conditions: SD; read-out: Kd, purified oligosaccharides in Tables S12, S13, S18, S19
Sequence of Sig7-Fc (Q9Y286 1-345): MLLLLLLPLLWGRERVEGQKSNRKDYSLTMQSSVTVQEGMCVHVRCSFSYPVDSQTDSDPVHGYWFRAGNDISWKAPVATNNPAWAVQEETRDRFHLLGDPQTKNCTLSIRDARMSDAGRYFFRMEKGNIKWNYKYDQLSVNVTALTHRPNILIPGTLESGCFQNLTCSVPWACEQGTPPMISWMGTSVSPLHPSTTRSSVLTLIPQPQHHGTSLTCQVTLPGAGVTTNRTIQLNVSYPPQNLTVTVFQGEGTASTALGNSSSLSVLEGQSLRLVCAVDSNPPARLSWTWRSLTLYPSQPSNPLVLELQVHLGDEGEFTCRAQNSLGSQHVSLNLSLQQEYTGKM

Siglec-7 = conditions: ITC; cited from earlier work
[1] = molecular target: T2, fCD22 (fragment of human Siglec 2) (Homo sapiens, UniProt P20273); experiment: COIN-nMS affinity measurement; format: binding
T2 construct: A fragment of human Siglec 2 (fCD22, residue 1–332, MW 37.4 kDa); made in house; host or cells: wild-type CHO cells
T2 sequence (P20273 20-332): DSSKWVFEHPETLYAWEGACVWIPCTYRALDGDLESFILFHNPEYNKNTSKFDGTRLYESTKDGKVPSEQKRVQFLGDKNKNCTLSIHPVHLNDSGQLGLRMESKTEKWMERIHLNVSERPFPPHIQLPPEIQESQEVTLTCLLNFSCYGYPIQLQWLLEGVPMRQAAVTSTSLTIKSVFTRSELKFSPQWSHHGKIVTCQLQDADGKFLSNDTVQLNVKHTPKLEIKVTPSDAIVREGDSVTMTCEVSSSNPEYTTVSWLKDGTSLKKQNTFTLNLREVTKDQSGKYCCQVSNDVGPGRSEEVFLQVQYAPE

[2] = molecular target: T2, fCD22 (fragment of human Siglec 2); experiment: direct nMS affinity measurement; format: binding; conditions: individual glycan; ammonium acetate 200 mM, pH 6.9
[3] = molecular target: T2, fCD22 (fragment of human Siglec 2); conditions: literature value; ref S3; cited from earlier work
[4] = molecular target: RCA-I (Ricinus communis agglutinin) (Ricinus communis, UniProt P06750); format: binding; conditions: read-out: Kd (Native); pH 6.9
GAL-7 homodimer [5] = molecular target: T3, GAL-7 homodimer (Homo sapiens, UniProt P47929); experiment: COIN-nMS affinity measurement; format: binding; parameters: key: NB: No binding detected; conditions: glycans present as a mixture (G2, G5-G13); average of eight measurements; pH 6.9
T3 construct: made in house
T3 sequence (P47929 whole entry): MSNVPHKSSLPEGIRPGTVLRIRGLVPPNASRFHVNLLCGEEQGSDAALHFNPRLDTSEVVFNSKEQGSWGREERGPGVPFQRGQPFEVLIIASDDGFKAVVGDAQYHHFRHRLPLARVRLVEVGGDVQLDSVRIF

GAL-7 homodimer [6] = molecular target: T3, GAL-7 homodimer; experiment: direct nMS affinity measurement; format: binding; parameters: key: NB: No binding detected; conditions: glycans present as a mixture (G2, G5-G13); pH 6.9
GAL-3C [7] = molecular target: T4, GAL-3C (Homo sapiens, UniProt P17931); experiment: COIN-nMS affinity measurement; format: binding; parameters: human Galectin-3 (GAL-3C, residues 107–250, molecular weight (MW) 16 327 Da); key: NB: No binding detected; conditions: glycans present as a mixture (G2, G5-G13); average of eight measurements; pH 6.9
T4 sequence (P17931 107-250): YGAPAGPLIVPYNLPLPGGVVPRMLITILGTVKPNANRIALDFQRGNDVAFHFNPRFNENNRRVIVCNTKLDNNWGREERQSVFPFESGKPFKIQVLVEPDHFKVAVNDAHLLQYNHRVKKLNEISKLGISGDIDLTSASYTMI

GAL-3C [8] = molecular target: T4, GAL-3C; experiment: direct nMS (ESI-MS) affinity measurement at known concentrations; format: binding; parameters: human Galectin-3 (GAL-3C, residues 107–250, molecular weight (MW) 16 327 Da); key: NB: No binding detected; conditions: glycans present as a mixture (G2, G5-G13); pH 6.9

Q: Which Kd (MAA) does the source give for `CC(=O)N[C@H]1[C@H]([C@H](O)[C@H](O)CO)O[C@@](O[C@H]2[C@@H](O)[C@@H](CO)O[C@@H](O[C@H]3[C@H](O)[C@@H](NC(C)=O)C(O)O[C@@H]3CO)[C@@H]2O)(C(=O)O)C[C@@H]1O` (stereo partly drawn) [G25, 3SLN, α-D-Neu5Ac-(2→3)-β-D-Gal-(1→4)-D-GlcNAc] here?
A: 2140 nM

Q: What about the Kd (Sig7-Fc) of the same compound?
A: 267 µM

Q: Which Kd (Siglec-7) does the source give for `CC(=O)N[C@H]1[C@H]([C@H](O)[C@H](O)CO)O[C@@](O[C@H](CO)[C@@H](O)[C@@H]2O[C@@](O[C@H]3[C@@H](O)[C@@H](CO)O[C@@H](O[C@H]4[C@H](O)[C@@H](O)C(O)O[C@@H]4CO)[C@@H]3O)(C(=O)O)C[C@H](O)[C@H]2NC(C)=O)(C(=O)O)C[C@@H]1O` (stereo partly drawn) [GD3, α-D-Neu5Ac-(2→8)-α-D-Neu5Ac-(2→3)-β-D-Gal-(1→4)-D-Glc] here?
A: 98 µM

Q: For `CC(=O)NC1C(O)OC(CO)C(OC2OC(CO)C(OC3OC(COC4OC(CO)C(O)C(O)C4OC4OC(CO)C(OC5OC(COC6(C(=O)O)CC(O)C(NC(C)=O)C(C(O)C(O)CO)O6)C(O)C(O)C5O)C(O)C4NC(C)=O)C(O)C(OC4OC(CO)C(O)C(O)C4OC4OC(CO)C(OC5OC(COC6(C(=O)O)CC(O)C(NC(C)=O)C(C(O)C(O)CO)O6)C(O)C(O)C5O)C(O)C4NC(C)=O)C3O)C(O)C2NC(C)=O)C1O` [Glycan G4, [α-D-Neu5Ac-(2→6)-β-D-Gal-(1→4)-β-D-GlcNAc-(1→2)-α-D-Man-(1→3)]-[α-D-Neu5Ac-(2→6)-β-D-Gal-(1→4)-β-D-GlcNAc-(1→2)-α-D-Man-(1→6)]-β-D-Man(1→4)-β-D-GlcNAc-(1→4)-D-GlcNAc], which Kd ([1]; global fit of data sets at 30, 50, 75 µM glycan, read-out: Kd (COIN-nMS, global fit)) is on record?
A: 23.5 ± 1.4 µM

Q: And the Kd ([1]; glycan concentration 30 µM, pH 6.9, read-out: Kd (COIN-nMS, individual experiments))?
A: 25.4 ± 2.2 µM

Q: And the Kd ([1]; glycan concentration 50 µM, pH 6.9, read-out: Kd (COIN-nMS, individual experiments))?
A: 37.5 ± 0.5 µM

Q: What about the Kd ([1]; glycan concentration 75 µM, pH 6.9, read-out: Kd (COIN-nMS, individual experiments)) of the same compound?
A: 23.4 ± 0.7 µM

Q: What about the Kd [2] of the same compound?
A: 13.1 ± 0.6 µM

Q: What about the Kd [3] of the same compound?
A: 13.1 ± 0.6 µM

Q: For `CC(=O)N[C@H]1[C@H](O[C@H]2[C@H](O)[C@@H](NC(C)=O)C(O)O[C@@H]2CO)O[C@H](CO)[C@@H](O[C@@H]2O[C@H](CO[C@H]3O[C@H](CO)[C@@H](O)[C@H](O)[C@@H]3O[C@@H]3O[C@H](CO)[C@@H](O[C@@H]4O[C@H](CO)[C@H](O)[C@H](O)[C@H]4O)[C@H](O)[C@H]3NC(C)=O)[C@@H](O)[C@H](O[C@H]3O[C@H](CO)[C@@H](O)[C@H](O)[C@@H]3O[C@@H]3O[C@H](CO)[C@@H](O[C@@H]4O[C@H](CO)[C@H](O)[C@H](O)[C@H]4O)[C@H](O)[C@H]3NC(C)=O)[C@@H]2O)[C@@H]1O` (some centres unmarked) [HexNAc4Hex5], which Kd [4] is on record?
A: 1220 ± 30 nM

Q: With “β-D-Gal(1→3)-[α-L-Fuc(1→4)]-β-D-GlcNAc(1→3)-β-D-Gal(1→4)-[α-L-Fuc(1→3)]-β-D-Glc [Glycan G11]” as the compound, how does the “Kd (COIN-nMS)” value (GAL-7 homodimer [5]) read?
A: NB and do not bind

Q: What about the “Kd (nMS)” value (GAL-7 homodimer [6]) of the same compound?
A: NB

Q: What about the “Kd (COIN-nMS)” value (GAL-3C [7]) of the same compound?
A: NB and do not bind

Q: What about the “Kd (nMS)” value (GAL-3C [8]) of the same compound?
A: NB
